# Results taken from patent US10597388B2, “Pyridazinone herbicides” (FMC CORPORATION, priority 2014, dated 2020).
# Experiments:
# Assay in all cases: Test D controlled growth environment herbicide test, pre- and postemergence
# Type in all cases: in vivo
# [1] = tested on: pigweed (Amaranthus retroflexus)
# How it was run: (§1)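 Pre-emergence: seeds sown in silt loam soil were sprayed with compound in a non-phytotoxic solvent mix containing surfactant. Post-emergence: plants at 2 to 18 cm (1- to 4-leaf stage) in peat moss/vermiculite medium got the same formulation. Visual 0–100 rating versus controls after 14 to 21 d.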
# [2] = tested on: buckwheat, wild (wild buckwheat, Polygonum convolvulus)
# How it was run: as §1
# [3] = tested on: mustard, wild (wild mustard, Sinapis arvensis)
# How it was run: as §1
# [4] = tested on: galium (catchweed bedstraw, Galium aparine)
# How it was run: as §1
# [5] = tested on: speedwell (bird's-eye speedwell, Veronica persica)
# How it was run: as §1
# [6] = tested on: kochia (Kochia scoparia)
# How it was run: as §1
# [7] = tested on: canarygrass (Phalaris minor)
# How it was run: as §1
# [8] = tested on: windgrass (Apera spica-venti)
# How it was run: as §1
# [9] = tested on: radish, wild (wild radish, Raphanus raphanistrum)
# How it was run: as §1
# [10] = tested on: field violet (Viola arvensis)
# How it was run: as §1
# [11] = tested on: bluegrass (annual bluegrass, Poa annua)
# How it was run: as §1
# [12] = tested on: Russian thistle (Salsola kali)
# How it was run: as §1
# [13] = tested on: oilseed rape (Brassica napus)
# How it was run: as §1
# [14] = Postemergence, 31 g ai/ha, scale 0 to 100 (0 no effect, 100 complete control)
# [15] = Postemergence, 125 g ai/ha, visual rating on scale 0 (no effect) to 100 (complete control), 14 to 21 d
# [16] = Postemergence, 250 g ai/ha, scale 0 to 100 (0 no effect, 100 complete control)
# [17] = Preemergence, 125 g ai/ha, scale 0 to 100 (0 no effect, 100 complete control)
# [18] = Preemergence, 250 g ai/ha, scale 0 to 100 (0 no effect, 100 complete control)
# [19] = postemergence, 62 g ai/ha, scale 0 to 100, 0 no effect, 100 complete control
compound,measurement,setting,value
CC(=O)Oc1c(C)nn(C)c(=O)c1-c1ccc(F)c2ccccc12 [Compound 90],Pigweed plant response rating,[1]; [14],80
same,"Plant response rating, Pigweed",[1]; [15],95
same,"Plant response rating, Pigweed",[1]; [16],100
same,"Plant response rating (scale of 0 to 100), Pigweed","[1]; Preemergence, 31 g ai/ha",25
same,"Plant response rating (scale of 0 to 100), Pigweed","[1]; Preemergence, 62 g ai/ha",35
same,"Plant response rating, Pigweed",[1]; [17],100
same,"Plant response rating, Pigweed",[1]; [18],100
same,"Plant response rating, Pigweed",[1]; [19],90
same,"Buckwheat, Wild plant response rating",[2]; [14],80
same,"Plant response rating, Buckwheat, Wild",[2]; [15],100
same,"Plant response rating, Buckwheat, Wild",[2]; [16],100
same,"Plant response rating (scale of 0 to 100), Buckwheat, Wild","[2]; Preemergence, 31 g ai/ha",15
same,"Plant response rating, Buckwheat, Wild",[2]; [17],40
same,"Plant response rating, Buckwheat, Wild",[2]; [18],80
same,"Plant response rating, Buckwheat, Wild",[2]; [19],90
same,"Mustard, Wild plant response rating",[3]; [14],80
same,"Plant response rating, Mustard, Wild",[3]; [15],100
same,"Plant response rating, Mustard, Wild",[3]; [16],100
same,"Plant response rating (scale of 0 to 100), Mustard, Wild","[3]; Preemergence, 31 g ai/ha",35
same,"Plant response rating (scale of 0 to 100), Mustard, Wild","[3]; Preemergence, 62 g ai/ha",98
same,"Plant response rating, Mustard, Wild",[3]; [17],100
same,"Plant response rating, Mustard, Wild",[3]; [18],90
same,"Plant response rating, Mustard, Wild",[3]; [19],95
same,Galium plant response rating,[4]; [14],98
same,"Plant response rating, Galium",[4]; [15],100
same,"Plant response rating, Galium",[4]; [16],100
same,"Plant response rating (scale of 0 to 100), Galium","[4]; Preemergence, 31 g ai/ha",75
same,"Plant response rating (scale of 0 to 100), Galium","[4]; Preemergence, 62 g ai/ha",75
same,"Plant response rating, Galium",[4]; [17],85
same,"Plant response rating, Galium",[4]; [18],95
same,"Plant response rating, Galium",[4]; [19],100
same,Speedwell plant response rating,[5]; [14],100
same,"Plant response rating, Speedwell",[5]; [15],100
same,"Plant response rating, Speedwell",[5]; [16],100
same,"Plant response rating (scale of 0 to 100), Speedwell","[5]; Preemergence, 31 g ai/ha",100
same,"Plant response rating (scale of 0 to 100), Speedwell","[5]; Preemergence, 62 g ai/ha",100
same,"Plant response rating, Speedwell",[5]; [17],100
same,"Plant response rating, Speedwell",[5]; [18],100
same,"Plant response rating, Speedwell",[5]; [19],100
same,Kochia plant response rating,[6]; [14],85
same,"Plant response rating, Kochia",[6]; [15],100
same,"Plant response rating, Kochia",[6]; [16],100
same,"Plant response rating (scale of 0 to 100), Kochia","[6]; Preemergence, 31 g ai/ha",75
same,"Plant response rating (scale of 0 to 100), Kochia","[6]; Preemergence, 62 g ai/ha",65
same,"Plant response rating, Kochia",[6]; [17],90
same,"Plant response rating, Kochia",[6]; [18],80
same,"Plant response rating, Kochia",[6]; [19],100
same,Canarygrass plant response rating,[7]; [14],25
same,"Plant response rating, Canarygrass",[7]; [15],75
same,"Plant response rating, Canarygrass",[7]; [16],75
same,"Plant response rating (scale of 0 to 100), Canarygrass","[7]; Preemergence, 31 g ai/ha",50
same,"Plant response rating (scale of 0 to 100), Canarygrass","[7]; Preemergence, 62 g ai/ha",75
same,"Plant response rating, Canarygrass",[7]; [17],85
same,"Plant response rating, Canarygrass",[7]; [18],95
same,"Plant response rating, Canarygrass",[7]; [19],45
same,Windgrass plant response rating,[8]; [14],30
same,"Plant response rating, Windgrass",[8]; [15],70
same,"Plant response rating, Windgrass",[8]; [16],90
same,"Plant response rating (scale of 0 to 100), Windgrass","[8]; Preemergence, 31 g ai/ha",50
same,"Plant response rating (scale of 0 to 100), Windgrass","[8]; Preemergence, 62 g ai/ha",65
same,"Plant response rating, Windgrass",[8]; [17],80
same,"Plant response rating, Windgrass",[8]; [18],98
same,"Plant response rating, Windgrass",[8]; [19],50
same,"Radish, Wild plant response rating",[9]; [14],65
same,"Plant response rating, Radish, Wild",[9]; [15],75
same,"Plant response rating, Radish, Wild",[9]; [16],95
same,"Plant response rating (scale of 0 to 100), Radish, Wild","[9]; Preemergence, 31 g ai/ha",0
same,"Plant response rating (scale of 0 to 100), Radish, Wild","[9]; Preemergence, 62 g ai/ha",65
same,"Plant response rating, Radish, Wild",[9]; [17],90
same,"Plant response rating, Radish, Wild",[9]; [18],95
same,"Plant response rating, Radish, Wild",[9]; [19],75
same,Field Violet plant response rating,[10]; [14],90
same,"Plant response rating, Field Violet",[10]; [15],100
same,"Plant response rating, Field Violet",[10]; [16],100
same,"Plant response rating (scale of 0 to 100), Field Violet","[10]; Preemergence, 31 g ai/ha",95
same,"Plant response rating (scale of 0 to 100), Field Violet","[10]; Preemergence, 62 g ai/ha",95
same,"Plant response rating, Field Violet",[10]; [17],100
same,"Plant response rating, Field Violet",[10]; [18],100
same,"Plant response rating, Field Violet",[10]; [19],98
same,Bluegrass plant response rating,[11]; [14],5
same,"Plant response rating, Bluegrass",[11]; [15],25
same,"Plant response rating, Bluegrass",[11]; [16],30
same,"Plant response rating (scale of 0 to 100), Bluegrass","[11]; Preemergence, 31 g ai/ha",0
same,"Plant response rating, Bluegrass","[11]; Preemergence, 62 g ai/ha, scale 0 to 100 (0 no effect, 100 complete control)",40
same,"Plant response rating, Bluegrass",[11]; [17],65
same,"Plant response rating, Bluegrass",[11]; [18],65
same,"Plant response rating, Bluegrass",[11]; [19],15
same,Russian Thistle plant response rating,[12]; [14],30
same,"Plant response rating, Russian Thistle",[12]; [15],75
same,"Plant response rating, Russian Thistle",[12]; [16],90
same,"Plant response rating (scale of 0 to 100), Russian Thistle","[12]; Preemergence, 31 g ai/ha",10
same,"Plant response rating (scale of 0 to 100), Russian Thistle","[12]; Preemergence, 62 g ai/ha",15
same,"Plant response rating, Russian Thistle",[12]; [17],35
same,"Plant response rating, Russian Thistle",[12]; [18],60
same,"Plant response rating, Russian Thistle",[12]; [19],75
same,Oilseed Rape plant response rating,[13]; [14],0
same,"Plant response rating, Oilseed Rape",[13]; [15],15
same,"Plant response rating, Oilseed Rape",[13]; [16],70
same,"Plant response rating (scale of 0 to 100), Oilseed Rape","[13]; Preemergence, 31 g ai/ha",0
same,"Plant response rating (scale of 0 to 100), Oilseed Rape","[13]; Preemergence, 62 g ai/ha",0
same,"Plant response rating, Oilseed Rape",[13]; [17],0
same,"Plant response rating, Oilseed Rape",[13]; [18],0
same,"Plant response rating, Oilseed Rape",[13]; [19],5
